≈ marks a conversion by molar mass, not a printed value. Some results are limits rather than exact numbers.

Series [1] can be described thus: Inhibition of SARS-CoV PLpro (1541 to 1855 residues) using RLRGG-AMC as substrate preincubated for 5 mins followed by substrate addition measured after 6 mins by fluorescence based assay. Also noted: species or system Severe acute respiratory syndrome-related coronavirus.
Another series concerns Human rhinovirus sp. In words: Antiviral activity against HRV infected in human HeLa cells assessed as inhibition in virus replication by plaque assay. The series is classed as functional, organism-based.
Series [2] is described as follows: Inhibition of SARS-CoV PLpro using Z-Arg-Leu-Arg-Gly-Gly-AMC acetate as substrate by fluorometric assay. Also noted: species or system Severe acute respiratory syndrome-related coronavirus.
Series [3] has as its target T1, Replicase polyprotein 1ab (Severe acute respiratory syndrome coronavirus 2, UniProt P0DTD1). As to the kind of experiment: Inhibition of SARS-CoV-2 PLpro.
Series [4] relates to SARS-CoV-2. In words: Antiviral activity against SARS-CoV-2 infected in human Caco-2 cells expressing hACE2 assessed as reduction in virus replication. The note with it: Severe acute respiratory syndrome coronavirus 2, Caco-2. The series is classed as functional, organism-based.
The target in series [5] is T1, Replicase polyprotein 1ab. As to the kind of experiment: Inhibition of C-terminal His-tagged SARS-CoV-2 PLpro BetaCoV/Wuhan/WIV04/2019 strain (1564 to 1876 residues) expressed in Escherichia coli BL21(DE3) using FRET substrate measured after 3 hrs by enzymatic assay.
For series [6], the system named is SARS-CoV-2. As to the kind of experiment: Antiviral activity against SARS-CoV-2 infected in African green monkey Vero E6 cells assessed as reduction in viral replication at MOI of 0.5 incubated for 23 hrs by plaque assay. Type of series: functional, organism-based. The note with it: Severe acute respiratory syndrome coronavirus 2, Vero C1008, 23 h.
Series [7] in a line: Cytotoxicity against African green monkey Vero E6 cells assessed as reduction in cell viability. Type of series: toxicity, cell-based, Vero C1008. The note with it: chlorocebus sabaeus.
Series [8] deals with SARS-CoV-2. In words: Antiviral activity against SARS-CoV-2 infected in human Caco-2 cells expressing hACE2 assessed as reduction in virus replication incubated for 48 hrs by Western blot analysis. Type of series: functional, organism-based. The note with it: Severe acute respiratory syndrome coronavirus 2, Caco-2, 48 h.

With `COc1ccc(CNC(=O)C2CCN(Cc3cccc4ccccc34)CC2)cc1`, the midpoint of inhibition in series [1], the IC50, lay at 59.2 µM.

Turning to `CCOc1cc(O)c(C(=O)/C=C/c2ccc(OC)cc2)c(OC)c1`, the 50% inhibitory concentration (IC50) in the series on Human rhinovirus sp. was 0.045 µg/mL (≈ 0.137 µM).

On to `Cc1ccc(N(C)C)cc1C(=O)N[C@H](C)c1cccc2ccccc12`, for which, in series [2], the IC50 is 4 µM.

In turn, `Cc1ccc(NC2CNC2)cc1C(=O)N[C@H](C)c1cccc(-c2ccc(CNC[C@H]3CCCO3)s2)c1` gave an IC50 in series [3] of 0.76 µM.

As to `C[C@H](c1cccc2ccccc12)N(C)Cc1ccc(O)cc1`, the EC50 with SARS-CoV-2 [4] was 8.32 µM.

For `Cc1ccc(N)cc1CN(C)[C@H](C)c1cccc2ccccc12`, the EC50 in the series with SARS-CoV-2 [4] stood at 8.89 µM. Also, the IC50 in series [5] turned out to be 0.99 µM.

Regarding `Cc1cc(N)ccc1C(=O)N[C@H](C)c1cccc2ccccc12`, in the series with SARS-CoV-2 [6], the EC50 stood at 15.8 µM. The molecule also came in with an IC50 in series [2] of 1.2 µM. The CC50 in [7] is greater than 500 µM.

Take `C[C@H](c1cccc2ccccc12)N1Cc2ccc(O)cc2C1`: in series [2], the midpoint of inhibition, the IC50, lay at 4.5 µM.

For `COc1ccc(CNC(=O)c2c(O)cc(OCC=C(C)C)cc2OC)cc1`, the IC50 in the series with Human rhinovirus sp. was 0.0072 µg/mL (≈ 0.0194 µM).

As to `C[C@@H](NC(=O)c1ccccc1Cl)c1cccc2ccccc12`, the EC50 in the series on SARS-CoV-2 [6] amounted to 1.77 µM. Also, the IC50 in [2] was 6.5 µM. The CC50 in [7] amounted to 376 µM.

Take `C[C@H](c1cccc2ccccc12)N1CCC(C(=O)NCc2cccc(NC(=O)N3CCN(C)CC3)c2)CC1`: the EC50 with SARS-CoV-2 [8] turned out to be 0.6 µM.

In turn, `COc1cc(O)ccc1CN(C)[C@H](C)c1cccc2ccccc12` returned a half-inhibitory concentration (IC50) in series [5] of 0.58 µM.

For `C[C@H](c1cccc2ccccc12)N1CCC(C(=O)NCc2cc(F)cc(NC(=O)CN(C)C)c2)CC1`, the EC50 in the series on SARS-CoV-2 [8] amounted to 0.22 µM.

In series [2], `Cc1cc(NS(C)(=O)=O)ccc1C(=O)N[C@H](C)c1cccc2ccccc12` registered an IC50 of 4.8 µM.

For `C[C@H](c1cccc2ccccc12)N1CCC(C(=O)NCc2cc(F)cc(NC(=O)N3CCN(C)CC3)c2)CC1`, the EC50 with SARS-CoV-2 [8] worked out at 0.18 µM.

In the case of `CNS(=O)(=O)c1ccc(C)c(C(=O)N[C@H](C)c2cccc3ccccc23)c1`, the IC50 in series [2] was found to be 4 µM.

In series [2], `C[C@H](c1cccc2ccccc12)N1Cc2ccc(N)cc2C1` came in with an IC50 of 4.9 µM.

As to `CCOc1cc(O)c(C(=O)NCc2ccc(NC)cc2)c(OC)c1`, in the series on Human rhinovirus sp., the IC50 came to 0.022 µg/mL (≈ 0.0666 µM).

Turning to `C[C@H](c1cccc2ccccc12)N1Cc2ccccc2C1`, the EC50 in the series on SARS-CoV-2 [6] came out at 7.85 µM. The same molecule had a half-maximal inhibitory concentration (IC50) in [2] of 2.9 µM. For the same molecule, the CC50 in series [7] was 442 µM.

On to `Cc1ccsc1C(=O)N[C@H](C)c1cccc2ccccc12`, for which the concentration for a half-maximal effect (EC50) in the series on SARS-CoV-2 [6] was found to be 4.74 µM. The molecule also gave an IC50 in [2] of 14 µM. In addition, the CC50 in series [7] was greater than 500 µM.

With `CCOc1cc(O)c(C(=O)NCc2ccc(OC)cc2)c(OC)c1`, the 50% inhibitory concentration (IC50) with Human rhinovirus sp. came to 0.014 µg/mL (≈ 0.0422 µM).

Take `Cc1ccc(N)cc1C(=O)N[C@H](C)c1cccc2ccccc12`: the EC50 in the series with SARS-CoV-2 [4] worked out at 25.1 µM.

Source of the values: ChEMBL document CHEMBL5107976, “Chalcone-amide, a privileged backbone for the design and development of selective SARS-CoV/SARS-CoV-2 papain-like protease inhibitors” (Eur J Med Chem, 2022).
